Drawing on BindingDB's records for PubMed 36240545 (n/a, 2022), this text covers IC50 for 1 molecule.

The structures appear in SMILES notation.

This assay has as its target T1, X-box-binding protein 1 (Homo sapiens, UniProt P17861).
T1 sequence (P17861 whole entry): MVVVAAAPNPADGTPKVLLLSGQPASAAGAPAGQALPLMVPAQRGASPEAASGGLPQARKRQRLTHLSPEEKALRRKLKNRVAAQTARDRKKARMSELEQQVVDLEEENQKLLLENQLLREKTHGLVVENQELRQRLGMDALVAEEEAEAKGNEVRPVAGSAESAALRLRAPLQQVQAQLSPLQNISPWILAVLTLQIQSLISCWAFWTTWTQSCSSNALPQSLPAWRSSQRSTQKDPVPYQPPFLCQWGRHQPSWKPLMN
In words: Inhibition of thapsigargin-induced XBP1-luciferase activation in human HeLa cells incubated for 24 hrs by luciferase assay.

The molecule `CO[C@H]1/C=C/C=C/C=C/C[C@H](OC(=O)[C@@H](C)NC(=O)C2CCCCC2)[C@H](C)[C@@H](O)/C(C)=C\CCC2=C(SC)C(=O)C=C(NC(=O)C1)C2=O` registered an IC50 of 67 µM.
